Results: patent publication US10947188B2, “Small molecule ferroptosis inducers” (THE TRUSTEES OF COLUMBIA UNIVERSITY IN THE CITY OF NEW YORK, priority 2016, dated 2021)
≈ marks a conversion by molar mass, not a printed value.

Test system: HT-1080 cells
Assay: Lethality of commercially available CIL41/70 structural analogs
Type: cell-based
Settings: Homo sapiens, tested once in technical triplicates
Experimental: 1,000 cells per 36 μl were seeded in each well in 384-well plates. Lethal compounds were dissolved, and a twofold, 12-point dilution series was prepared in DMSO. Compound solutions were further diluted with media at 1:25, and 4 μl per well of the diluted solutions was added to cell cultures immediately after cells were seeded. […] When other cell-death-modulating compounds (100 nM sodium selenite, 1 μM cerivastatin, 100 μg/mL mevalonic acid) were used in cotreatments, they were supplemented to cell culture for 24 h before lethal compounds were added to cell culture, after which cells were further incubated for 24 h at 37° C. under 5% CO2. On the day of the viability measurement, we added 10 μl per well of 50% Alamar Blue diluted in media (Life Technologies) and further incubated the cells at 37° C. for 6 h. Fluorescence intensity (excitation/emission: 530/590) was measured with a Victor 3 plate reader (PerkinElmer), and the normalized viability was calculated as VL=(IL−I0)/(IV−I0), where VL, I0, IV, and IL are the normalized viability and the raw fluorescence intensities from the wells containing media, cells treated with a vehicle (negative control), and cells with the lethal compound (L), respectively. When the effect of a chemical modulator (M) on L was calculated, we instead used the equation VL|M=(IM,L−I0)/(IM,V−I0), where VL|M, IM,L and IM,V are the normalized viability, and fluorescence intensity from cells treated with […], respectively. The viability was typically measured in biological triplicate unless otherwise specified. A representative dose-response curve, the mean and standard error of normalized viability from one replicate were plotted. HT-1080 viability after modulator treatments corresponding to FIG. 3C and FIGS. 5E-5F is available in FIGS. 19A-19C.
Their lethality was tested once in HT-1080 cells in technical triplicates.

Row | SMILES | EC50
1 | COc1ccccc1C/C(N)=N/OC(=O)c1ccc2c(c1)OCO2 [A05] | 5.04 µg/mL (≈ 15.4 µM)
2 | N/C(Cc1ccc(Cl)cc1Cl)=N\OC(=O)C1CCCCC1 [AS1] | > 20 µg/mL
3 | N/C(Cc1ccc(Cl)cc1Cl)=N\OC(=O)/C=C/c1ccccc1 [AS2] | 12.3 µg/mL (≈ 35.1 µM)
4 | CC(C)(C)c1ccc(C(=O)O/N=C(\N)Cc2cccs2)cc1 [B02] | 3.3 µg/mL (≈ 10.4 µM)
5 | CCc1nc(C)ccc1OC/C(N)=N/OC(C)=O [CB1] | > 20 µg/mL
6 | N/C(Cc1ccc([N+](=O)[O-])cc1)=N\OC(=O)C1CCCCC1 [CB2] | > 20 µg/mL
7 | Cc1ccccc1OCC(=O)O/N=C(\N)Cc1ccc(Cl)cc1 [CB3] | > 20 µg/mL
8 | N/C(Cc1ccc(Cl)cc1)=N\OC(=O)COc1ccccc1Cl [CB4] | > 20 µg/mL
9 | COc1ccccc1C/C(N)=N/OC(=O)COc1ccc(C(C)(C)C)cc1 [CB5] | > 20 µg/mL
10 | N/C(Cc1ccc([N+](=O)[O-])cc1)=N\OC(=O)COc1cccc2ccccc12 [CB6] | > 20 µg/mL
11 | CC(C)(C)c1ccc(OCC(=O)O/N=C(\N)Cc2ccc([N+](=O)[O-])cc2)cc1 [CB7] | > 20 µg/mL
12 | COc1ccc(C/C(N)=N/OC(=O)Cc2ccc(Cl)cc2)cc1OC [CB8] | > 20 µg/mL
13 | N/C(Cc1ccc([N+](=O)[O-])cc1)=N\OC(=O)Cc1ccc(Cl)cc1 [CB9] | > 20 µg/mL
